In patent publication US4670456A, “4-Aminocarbonylaminomethyl-1-benzylpyrrolidin-2-ones as nootropic agents and as agents for treating cerebral insufficiency” (Boehringer Ingelheim KG, priority 1984, dated 1987):
Read-outs that look alike come from different tables or passages of the source.

Key:
mice [1] = experiment: Reversal of Scopolamine-Induced Transient Disruption of the Memory of a Passive Avoidance Procedure; type: in vivo; settings: scopolamine 0.6 mg/kg i.p.
Protocol: 1. […] The animals used were mice, to which scopolamine was administered at a dosage of 0.6 mg/kg, i.p.

[2] = molecular target: Muscarine-Cholinergic Receptor (Hippocampus); experiment: Muscarine-Cholinergic Receptor Binding, hippocampus; parameters: species or system rat
Protocol: The IC50 values were calculated in the manner described by Y. C.

Acute Toxicity (LD50) = settings: in vivo, po; mouse
Protocol: The acute toxicity of the test compounds was determined in the conventional manner, in the mouse.

mice [3] = experiment: Hypoxia Tolerance Test; type: in vivo; settings: 96.5% nitrogen, 3.5% oxygen, effective: at most 1-2 treated animals died when 7-8 untreated had died
Protocol: 2. Hypoxia Tolerance Test
In the method employed, mice which are untreated controls or which have been pretreated with the test substance (p.o.) are placed in respective sealed chambers which are filled with a gas mixture consisting of 96.5% nitrogen and 3.5% oxygen. The observer waits until 7-8 of the untreated animals have died. This occurs within 6-7 minutes. If the test substance is effective, at most 1-2 of the treated animals may have died.

[4] = molecular target: muscarine-cholinergic receptor structures in the rat cortex; experiment: Muscarine-Cholinergic Receptor Binding, cortex
Protocol: Also as described in Example 8, the compounds tested bound with high affinity to muscarine-cholinergic receptor structures in the rat cortex.
3. Muscarine-Cholinergic Receptor Binding
This test was performed according to the methods described by M. Watson et al., Life Sci., 32, 3001-3011 (1983) and R. Hammer et al., Nature, 283, 90=92 (1980). The IC50 values were calculated in the manner described by Y. C. Cheng et al., Biochemical Pharmacology, 22, 3099-3108 (1973).

[5] = printed across the Hippocampus and Cortex columns, ineffective up to the stated concentration, read-out: Muscarine Receptor Binding, IC50, Hippocampus and Cortex (ineffective up to)
[6] = Hippocampus, read-out: Muscarine Receptor Binding, IC50, Hippocampus

COc1ccc(C(=O)N2CCCC2=O)cc1 [Aniracetam, 1-(p-methoxybenzoyl)-pyrrolidin-2-one, reference compound]
Scopolamine-Induced Memory Disruption, % Inhibition (mice [1]; 30 mg/kg p.o.): 29.7% | Scopolamine-Induced Memory Disruption, % Inhibition (mice [1]; 50 mg/kg p.o.): 42.6% | Scopolamine-Induced Memory Disruption, % Inhibition (mice [1]; 100 mg/kg p.o.): 49.3% | IC50 [2, 5]: > 100 µM

CN1CCN(C(=O)NCC2CC(=O)N(Cc3ccccc3)C2)CC1 (centres unmarked) [Example 1, 4-(N-Methylpiperazinyl-carbonylaminomethyl)-1-benzylpyrrolidin-2-one]
LD50 at 336 h (Acute Toxicity (LD50)): 1500 to 2000 mg/kg | Scopolamine-Induced Memory Disruption, % Inhibition (mice [1]; 10 mg/kg p.o.): 43%

O=C(NCC1CC(=O)N(Cc2ccccc2)C1)Nc1ccc(Cl)cc1 (centres unmarked) [Example 5, 4-(p-Chlorophenylamino-carbonylaminomethyl)-1-benzylpyrrolidin-2-one]
LD50 at 336 h (Acute Toxicity (LD50)): > 2000 mg/kg | Hypoxia Tolerance (mice [3]; 100 mg/kg p.o.): effective | Scopolamine-Induced Memory Disruption, % Inhibition (mice [1]; 5 mg/kg p.o.): 50% | Scopolamine-Induced Memory Disruption, % Inhibition (mice [1]; 10 mg/kg p.o.): 70% | IC50 [2, 6]: 93 µM

CNC(=O)NCC1CC(=O)N(Cc2ccccc2)C1 (centres unmarked) [Example 7]
Scopolamine-Induced Memory Disruption, % Inhibition (mice [1]; 100 mg/kg p.o.): 60% | IC50 [2, 6]: > 100 µM

Cc1ccc(CN2CC(CNC(=O)N3CCN(C)CC3)CC2=O)cc1 (centres unmarked) [Example 13]
IC50 [4]: > 10 µM | Scopolamine-Induced Memory Disruption, % Inhibition (mice [1]; 50 mg/kg p.o.): 50% | IC50 [2, 6]: 26 µM

CN1CCN(C(=O)N(C)CC2CC(=O)N(Cc3ccccc3)C2)CC1 (centres unmarked) [Example 17]
Scopolamine-Induced Memory Disruption, % Inhibition (mice [1]; 30 mg/kg p.o.): 45% | IC50 [2, 6]: > 100 µM

NC(=O)CN1CCCC1=O [Piracetam, 1-carbomyl-methyl-pyrrolidin-2-one, reference compound]
Hypoxia Tolerance (mice [3]; 150 mg/kg p.o.): effective | Scopolamine-Induced Memory Disruption, % Inhibition (mice [1]; 100 mg/kg p.o.): 42.9% | Scopolamine-Induced Memory Disruption, % Inhibition (mice [1]; 200 mg/kg p.o.): 53.7% | Scopolamine-Induced Memory Disruption, % Inhibition (mice [1]; 500 mg/kg p.o.): 50.0% | IC50 [2, 5]: > 1000 µM
